According to patent US10662204B2 (PFIZER INC., priority 2018, dated 2020):

Experiments:
[1] = molecular target: T1, GDP-loaded KRAS (1-169) G12C, C51S, C80L, C118S (Homo sapiens, UniProt P01116, C118S/C51S/C80L/G12C); assay: Mass Spectrometry Reactivity Assay (MSRA): covalent adduct of compound and KRAS G12C, Percent Modification; assay type: binding; details: for MSRA (% modification) 5.0 μM 0.25 hr / MSRA (% modification) 5.0 μM 0.017 hr: 5.0 μM compound; for MSRA (% modification) 10 μM 0.50 hr / MSRA (% modification) 10 μM 0.25 hr: 10 μM compound
T1 construct: GDP-loaded KRAS (1-169) G12C, C51S, C80L, C118S
Method in brief: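 GDP-loaded KRAS(1-169) G12C/C51S/C80L/C118S at 5 μM in 25 mM Hepes pH 7.5, 200 mM NaCl, 5% glycerol incubated at RT with compound (typically 5 or 10 μM final, 1% DMSO). Quenched in formic acid at 1-60 min; intact-protein LC-TOF MS gives % modification = modified/(modified+unmodified).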

KRAS G12C = KRAS G12C (Homo sapiens, UniProt P01116, G12C); assay: Cell Activity Assay: accumulation of GDP-bound KRAS G12C in MIAPaCa-2 cells (Raf-1 RBD capture, MSD readout); assay type: cell-based; parameters: endogenous in cells; host or cells: MIAPaCa-2; details: 6 hours, assay limit is 30.00
Method in brief: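 MIAPaCa-2 cells exposed 6 h at 37 °C to 3-fold compound dilutions (0.3% DMSO final), then lysed. Active GTP-KRAS captured on Raf-1 RBD-coated plates, detected with anti-pan-Ras and SULFO-TAG secondary by MSD electrochemiluminescence. Signal normalized to DMSO and maximum inhibition; IC50 from 4-parameter fit.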

Row | Compound | MSRA (% modification) 5.0 μM 0.25 hr [1] [%] | IC50 (KRAS G12C) [µM] | MSRA (% modification) 10 μM 0.50 hr [1] [%] | MSRA (% modification) 10 μM 0.25 hr [1] [%] | MSRA (% modification) 5.0 μM 0.017 hr [1] [%]
1 | C=CC(=O)N1CCN(c2ncnc3c(Oc4c(C)c(Cl)cc5[nH]ncc45)nc(C#N)cc23)CC1 [Example 28A, 4-(4-acryloylpiperazin-1-yl)-8-[(6-chloro-5-methyl-1H-indazol-4-yl)oxy]pyrido[3,4-d]pyrimidine-6-carbonitrile] | – | 1.02 | 61 | – | –
2 | C=CC(=O)N1CCN(c2nc(OCCNC(C)=O)nc3c(Oc4c(C)ccc5[nH]ncc45)cccc23)CC1 [Example 17F, N-[2-({4-(4-acryloylpiperazin-1-yl)-8-[(5-methyl-1H-indazol-4-yl)oxy]quinazolin-2-yl}oxy)ethyl]acetamide] | – | 4.59 | 60 | 36 | –
3 | C=CC(=O)N1CCN(c2nc(OC[C@H]3CCCN3C)nc3c(Oc4c(C)ccc5[nH]ncc45)cccc23)CC1 [Example 06E, 1-[4-(8-[(5-methyl-1H-indazol-4-yl)oxy]-2-{[(2R)-1-methylpyrrolidin-2-yl]methoxy}quinazolin-4-yl)piperazin-1-yl]prop-2-en-1-one] | 35 | 0.585 | 75 | 70 | –
4 | C=CC(=O)N1CCN(c2ncnc3c(Oc4c(C)c(Cl)cc5[nH]ncc45)cccc23)CC1CC#N (stereo not drawn) [Example 22C, (1-acryloyl-4-{8-[(5-chloro-6-mehtyl-1H-indazol-4-yl)oxy]quinazolin-4-yl}piperazin-2-yl)acetonitrile] | – | 14 | 75 | 75 | –
5 | C=CC(=O)N1CCN(c2ncnc3c(Oc4c(CC)ccc5[nH]ncc45)nccc23)CC1 [Example 07A, 1-(4-{8-[(5-ethyl-1H-indazol-4-yl)oxy]pyrido[3,4-d]pyrimidin-4-yl}piperazin-1-yl)prop-2-en-1-one] | – | 7.15 | 16 | – | –
6 | C=CC(=O)N1CCN(c2nc(NC(C)c3nncn3C)nc3c(Oc4c(C)ccc5[nH]ncc45)cccc23)CC1 (stereo not drawn) [Example 03F, 1-[4-(8-[(5-methyl-1H-indazol-4-yl)oxy]-2-{[1-(4-methyl-4H-1,2,4-triazol-3-yl)ethyl]amino}quinazolin-4-yl)piperazin-1-yl]prop-2-en-1-one] | – | > 30 | 12 | – | –
7 | C=CC(=O)N1CCN(c2ncnc3c(Oc4cc(O)cc5ccccc45)nc(C)cc23)CC1 [Example 02, 1-(4-{8-[(3-Hydroxynaphthalen-1-yl)oxy]-6-methylpyrido[3,4-d]pyrimidin-4-yl}piperazin-1-yl)prop-2-en-1-one] | – | > 30 | 19 | – | –
8 | C=CC(=O)N1CCN(c2nc(N3CC(CN(C)C)C3)nc3c(Oc4c(C)ccc5[nH]ncc45)cccc23)CC1 [Example 10E, 1-[4-(2-{3-[(dimethylamino)methyl]azetidin-1-yl}-8-[(5-methyl-1H-indazol-4-yl)oxy]quinazolin-4-yl)piperazin-1-yl]prop-2-en-1-one] | – | 2.32 | 21 | – | –
9 | C=CC(=O)N1CCN(c2ncnc3c(Oc4c(C)ccc5[nH]ncc45)nc(Cl)cc23)CC1 [Example 09A, 1-(4-{6-chloro-8-[(5-methyl-1H-indazol-4-yl)oxy]pyrido[3,4-d]pyrimidin-4-yl}piperazin-1-yl)prop-2-en-1-one] | – | 1.87 | 38 | – | –
10 | C=CC(=O)N1CCN(c2nc(NCc3nncn3C)nc3c(Oc4c(C)ccc5[nH]ncc45)cccc23)CC1 [Example 02F, 1-[4-(8-[(5-methyl-1H-indazol-4-yl)oxy]-2-{[(4-methyl-4H-1,2,4-triazol-3-yl)methyl]amino}quinazolin-4-yl)piperazin-1-yl]prop-2-en-1-one] | – | > 30 | 14 | – | –
11 | C=CC(=O)N1CCN(c2ncnc3c(Oc4c(Cl)c(F)cc5[nH]ncc45)cccc23)CC1 [Example 18C, 1-(4-{8-[(5-chloro-6-fluoro-1H-indazol-4-yl)oxy]quinazolin-4-yl}piperazin-1-yl)prop-2-en-1-one] | 36 | 1.1 | 50 | – | –

The next lines start with the values.

Row | MSRA (% modification) 5.0 μM 0.25 hr [1] [%] | IC50 (KRAS G12C) [µM] | MSRA (% modification) 10 μM 0.50 hr [1] [%] | MSRA (% modification) 10 μM 0.25 hr [1] [%] | MSRA (% modification) 5.0 μM 0.017 hr [1] [%] | Compound
12 | 32 | 0.321 | – | – | – | C=CC(=O)N1CCN(c2nc(O[C@H]3CN(C)C[C@@H]3OC)nc3c(Oc4c(Cl)c(F)cc5[nH]ncc45)nccc23)CC1 [Example 11I, 1-[4-(8-[(5-chloro-6-fluoro-1H-indazol-4-yl)oxy]-2-{[(3S,4S)-4-methoxy-1-methyl-pyrrolidin-3-yl]oxy}pyrido [3,4-d]pyrimidin-4-yl)piperazin-1-yl]prop-2-en-1-one]
13 | – | 0.008 | – | – | 70 | C=CC(=O)N1CCN(c2nc(Oc3cccc4c3CCN(C)C4)nc3c(Oc4c(Cl)c(Cl)cc5[nH]ncc45)nccc23)CC1 [Example 50I, 1-(4-{8-[(5,6-dichloro-1H-indazol-4-yl)oxy]-2-[(2-methyl-1,2,3,4-tetrahydro-isoquinolin-5-yl)oxy]pyrido [3,4-d]pyrimidin-4-yl}piperazin-1-yl)prop-2-en-1-one]
14 | – | 0.004 | – | – | 66 | C=CC(=O)N1CCN(c2nc(O[C@@H]3CN(C)C[C@H]3OC)nc3c(Oc4c(Cl)c(Cl)cc5[nH]ncc45)nccc23)CC1 [Example 19H, 1-[4-(8-[(5,6-dichloro-1H-indazol-4-yl)oxy]-2-{[(3R,4R)-4-methoxy-1-methylpyrrolidin-3-yl]oxy}pyrido[3,4-d]pyrimidin-4-yl)piperazin-1-yl]prop-2-en-1-one]
15 | – | 4.7 | – | 31 | – | C=CC(=O)N1CCN(c2ncnc3c(Oc4c(Cl)c(F)cc5[nH]ncc45)nc(Cl)cc23)C[C@@H]1C [Example 36A, 1-[(2S)-4-{6-chloro-8-[(5-chloro-6-fluoro-1H-indazol-4-yl)oxy]pyrido[3,4-d]pyrimidin-4-yl}-2-methylpiperazin-1-yl]prop-2-en-1-one]
16 | – | 0.031 | – | – | 39 | C=CC(=O)N1CCN(c2nc(O[C@@H]3CN(C)C[C@H]3C)nc3c(Oc4c(Cl)c(Cl)cc5[nH]ncc45)nccc23)CC1 (racemic) [Example 51I, rac-1-[4-(8-[(5,6-dichloro-1H-indazol-4-yl)oxy]-2-{[(3S,4R)-1,4-dimethyl-pyrrolidin-3-yl]oxy}pyrido [3,4-d]pyrimidin-4-yl)piperazin-1-yl]prop-2-en-1-one]
17 | – | 0.083 | – | – | 31 | C=CC(=O)N1CCN(c2nc(O[C@@H]3CN(C)C[C@H]3C3CC3)nc3c(Oc4c(Cl)c(F)cc5[nH]ncc45)nccc23)CC1 (racemic) [Example 39I, rac-1-[4-(8-[(5-chloro-6-fluoro-1H-indazol-4-yl)oxy]-2-{[(3S,4R)-4-cyclo-propyl-1-methyl-pyrrolidin-3-yl]oxy}pyrido [3,4-d]pyrimidin-4-yl)piperazin-1-yl]prop-2-en-1-one]
18 | – | 2.41 | 29 | – | – | C=CC(=O)N1CCN(c2nc(N3CC(N(C)C)C3)nc3c(Oc4c(Cl)c(C)cc5[nH]ncc45)nc(C)cc23)CC1 [Example 01E, 1-(4-{8-[(5-Chloro-6-methyl-1H-indazol-4-yl)oxy]-2-[3-(dimethylamino)azetidin-1-yl]-6-methylpyrido[3,4-d]pyrimidin-4-yl}piperazin-1-yl)prop-2-en-1-one]
19 | – | 0.071 | – | 53 | – | C=CC(=O)N1CCN(c2nc(OC[C@@H]3CCCN3C)nc3c(Oc4c(C)c(Cl)cc5[nH]ncc45)nc(Cl)cc23)CC1 [Example 10G, 1-[4-(6-chloro-8-[(6-chloro-5-methyl-1H-indazol-4-yl)oxy]-2-{[(2S)-1-methylpyrrolidin-2-yl]methoxy}pyrido[3,4-d]pyrimidin-4-yl)piperazin-1-yl]prop-2-en-1-one]
20 | – | 0.111 | – | 14 | – | C=CC(=O)N1CCN(c2nc(OC[C@@H]3C[C@@H](F)CN3C)nc3c(Oc4c(Cl)c(F)cc5[nH]ncc45)nc(Cl)cc23)CC1 [Example 16G, 1-[4-(6-chloro-8-[(5-chloro-6-fluoro-1H-indazol-4-yl)oxy]-2-{[(2S,4R)-4-fluoro-1-methylpyrrolidin-2-yl]methoxy}pyrido[3,4-d]pyrimidin-4-yl)piperazin-1-yl]prop-2-en-1-one]
21 | – | 0.171 | 79 | – | – | C=CC(=O)N1CCN(c2ncnc3c(Oc4c(C)c(Cl)cc5[nH]ncc45)nc(Cl)cc23)CC1 [Example 31A, 1-(4-{6-chloro-8-[(6-chloro-5-methyl-1H-indazol-4-yl)oxy]pyrido[3,4-d]pyrimidin-4-yl}piperazin-1-yl)prop-2-en-1-one]
22 | – | 0.109 | – | – | 35 | C=CC(=O)N1CCN(c2nc(OC3CN(C)CC34CC4)nc3c(Oc4c(Cl)c(F)cc5[nH]ncc45)nc(Cl)cc23)CC1 (stereo not drawn) [Example 36G, 1-(4-{6-chloro-8-[(5-chloro-6-fluoro-1H-indazol-4-yl)oxy]-2-[(5-methyl-5-azaspiro[2.4]heptan-7-yl)oxy]pyrido[3,4-d]pyrimidin-4-yl}piperazin-1-yl)prop-2-en-1-one]
23 | – | 0.021 | – | – | 70 | C=CC(=O)N1CCN(c2nc(Oc3cccc4c3CN(C)C4)nc3c(Oc4c(Cl)c(F)cc5[nH]ncc45)nccc23)CC1 [Example 41I, 1-(4-{8-[(5-chloro-6-fluoro-1H-indazol-4-yl)oxy]-2-[(2-methyl-2,3-dihydro-1H-isoindol-4-yl)oxy]pyrido [3,4-d]pyrimidin-4-yl}piperazin-1-yl)prop-2-en-1-one]
